From ChEMBL document CHEMBL1138419 (Bioorg Med Chem Lett, 2007) come the findings set out here.

Each structure is given as a SMILES string. Values after ≈ are worked out from the molar mass of the structure shown.

The target in data set [1] is cGMP-specific 3',5'-cyclic phosphodiesterase (Bos taurus, UniProt Q28156). The experiment in a line: Inhibition of bovine PDE5 after 24 hrs by HTRF. In general terms: TR-FRET usually uses a lanthanide donor and a delayed reading to cut background.
Data set [2] is described as follows: Aqueous solubility in PBS at pH 7.4. It counts as physicochemical.

For orientation: IC50 means the point on the concentration scale where inhibition reaches its midpoint. Low readings indicate higher potency, high ones lower potency. Usually solubility stands for the concentration that dissolves in the medium under given conditions. Low readings indicate little dissolved substance, high ones much dissolved substance.

In data set [1], `O=C1[C@H]2Cc3c([nH]c4ccccc34)[C@@H](c3ccc4c(c3)OCO4)N2C(=O)CN1c1ccc([N+](=O)[O-])cc1` yielded a 50% inhibitory concentration (IC50) of 122 nM. `O=C1[C@H]2Cc3c([nH]c4ccccc34)[C@@H](c3ccc4c(c3)OCO4)N2C(=O)CN1c1ccc(C(F)(F)F)cc1`: in data set [1], 377 nM corresponded to half-maximal inhibition (IC50).

In data set [1], `O=C1[C@H]2Cc3c([nH]c4ccccc34)[C@@H](c3ccc4c(c3)OCO4)N2C(=O)CN1c1cccs1` returned an IC50 of 57 nM. Compared with the last molecule, the IC50 is about 6.6-fold lower. In turn, `CN1CC(=O)N2[C@H](c3ccc4c(c3)OCO4)c3[nH]c4ccccc4c3C[C@@H]2C1=O` returned a solubility in data set [2] of 9.7 µM (≈ 3.78 µg/mL). Molecule `Cc1cccc(N2CC(=O)N3[C@H](c4ccc5c(c4)OCO5)c4[nH]c5ccccc5c4C[C@@H]3C2=O)c1` showed an IC50 in data set [1] of 68 nM. In other words, the double-digit nanomolar range. Regarding `COc1ccc(N2CC(=O)N3[C@H](c4ccc5c(c4)OCO5)c4[nH]c5ccccc5c4C[C@@H]3C2=O)cc1`, in data set [1], the IC50 was found to be 16 nM.

`O=C1[C@H]2Cc3c([nH]c4ccccc34)[C@@H](c3ccc4c(c3)OCO4)N2C(=O)CN1c1ccccc1` returned a half-inhibitory concentration (IC50) in data set [1] of 91 nM. The solubility in data set [2] is 2.4 µM (≈ 1.08 µg/mL). As for `O=C1[C@H]2Cc3c([nH]c4ccccc34)[C@@H](c3ccc4c(c3)OCO4)N2C(=O)CN1c1ccsc1`, in data set [1], the concentration for half-maximal inhibition (IC50) turned out to be 18 nM. Molecule `O=C1[C@H]2Cc3c([nH]c4ccccc34)[C@@H](c3ccc4c(c3)OCO4)N2C(=O)CN1c1cccnc1` registered an IC50 in data set [1] of 28 nM. In data set [2], this molecule gave a solubility of 33 µM (≈ 14.9 µg/mL). `O=C1[C@H]2Cc3c([nH]c4ccccc34)[C@@H](c3ccc4c(c3)OCO4)N2C(=O)CN1c1cncnc1` displayed an IC50 in data set [1] of 53 nM. In data set [2], this molecule had a solubility of 25 µM (≈ 11.3 µg/mL). `O=C1[C@H]2Cc3c([nH]c4ccccc34)[C@@H](c3ccc4c(c3)OCO4)N2C(=O)CN1c1ccc(Cl)cc1` displayed an IC50 in data set [1] of 134 nM. With `CCCCc1ccc(N2CC(=O)N3[C@H](c4ccc5c(c4)OCO5)c4[nH]c5ccccc5c4C[C@@H]3C2=O)cc1`, in data set [1], the IC50 came to 152 nM. The molecule `O=C1[C@H]2Cc3c([nH]c4ccccc34)[C@@H](c3ccc4c(c3)OCO4)N2C(=O)CN1c1cccc(Cl)c1` showed an IC50 in data set [1] of 141 nM.
